Like-named read-outs stand apart in the source and are kept apart here.
Key:
[1] = system: anesthetized thoracotomized dog; assay: Hypotensive activity and coronary bloodflow increasing activity on anesthetized thoracotomized dog; format: in vivo, dog (crossbred); settings: Canis lupus familiaris, intravenous, 3 μg/kg
Text: (3) Hypotensive activity and coronary bloodflow increasing activity on anesthetized thoracotomized dog
The compounds of the present invention were examined for hypotensive activity and coronary bloodflow increasing activity by the use of an anesthetized thoracotomized dog.
A crossbred adult dog was used. This dog was thoracotomized under inhalation anesthesia with an enflurane/laughing gas. The probe of an electromagnetic flowmeter was set on the ramus circumflexes of the left coronary artery to determine the coronary bloodflow. The arterial pressure was determined by making the tip of a catheter-tipped pressure transducer indwell in the arcus aortae.
Each test compound was intravenously administered in a dose of 3 μg/kg through a catheter inserted into the femoral vein.
The hypotensive activity and coronary bloodflow increasing activity of each test compound are given in Table 1 as the changes of the blood pressure and coronary bloodflow based on those before the administration of the compound.

[2] = system: spontaneously hypertensive rats (SHR); assay: Hypotensive activity on spontaneously hypertensive rat in waking state; format: in vivo; settings: oral, 2 hours after administration, before administration = 100, control 93.3 ± 4.0, read-out: Blood pressure
Description: (4) Hypotensive activity on spontaneously hypertensive rat in waking state
The compounds of the present invention were examined for hypotensive activity by orally administrating them to spontaneously hypertensive rats (SHR).
The systolic pressure of a spontaneously hypertensive male rat (weight: 260 to 360 g) which had been fasted for 12 hours was bloodlessly determined by the tail cuff method. Each drug was suspended in a 0.5% aqueous solution of methylcellulose and orally administered in a dose of 1 mg/kg. only the solvent was administered to control rats.
The blood pressures of the rats after 2 hours from the administration are given in the Table 1 with the blood pressures before the administration being taking as 100.

[3] = system: rat aorta; assay: Vasohypotonic activity on rat aorta specimen (inhibition of KCl-induced tension); format: cell-based, rat (SD); settings: rat aorta spiral specimen, 20 mM KCl, 30° C., KCl tension = 100%
Description: (1) Vasohypotonic activity on rat aorta specimen
The compounds of the present invention were examined for vasohypotonic activity by the use of the aorta extirpated from a rat.
A pectoral aorta was speedily extirpated from an SD male rat having a weight of 250 to 400 g and a spiral specimen was prepared from the aorta. This specimen was vertically suspended in the Organbath which was filled with the Krebs-Henseleit solution at 30° C. and through which a gas mixture comprising 95% of oxygen and 5% of carbon dioxide was passed. The change in the tension of the specimen was isotonically determined under a load of 1 g.
After the tension of the specimen has been stabilized, 20 mM of KCl was added to the bath. After the generated tension had been stabilized, a test compound was cumulatively added to the Organbath to determine the relaxation.
The extent of the relaxation, i.e., the inhibitory activity against the generation of tension was determined by taking the tension generated by the addition of KCl as 100% to calculate the IC50 value.

[4] = system: right ventricular papillary muscle of guinea pig; assay: Activity on the action potential duration of the right ventricular papillary muscle of guinea pig (potassium channel activating effect); format: cell-based, guinea pig (Hartley); settings: Cavia porcellus, 0.5 h, 1 Hz, 36 ±0.5° C., 30 minutes each concentration, read-out: Concn. at which APD90 is shortened to 50% of the initial one IC50 (converted)
Text: (2) Activity on the action potential duration of the right ventricular papillary muscle of guinea pig
The compounds of the present invention were examined for the potassium channel activating effect by the use of the right ventricular papillary muscle of a guinea pig.
An action potential duration at 90% repolarization (hereinafter abbreviated to "APD90 ") reflects an outward potassium current. A compound having the potassium channel activating effect can activate the outward potassium channel to shorten the APD90 (see Proc. Natl. Acad. Sci., USA, 85, 8860 to 8864 (1988)).
A Hartley male guinea pig having a weight of 300 to 500 g was used. This guinea pig was killed by bleeding and the papillary muscle was extirpated from the right ventricle of the guinea pig and fixed in the Organbath. The surface of the papillary muscle was washed with Tyrode's solution at 36 ±0.5° C. through which an oxygen/carbon dioxide mixture was passed. The resulting specimen was stimulated by applying a rectangular wave pulse of 1 Hz to record the action potential by the glass microelectrode method.
After the action potential had been stabilized, the specimen was washed with Tyrode's solutions containing a test compound each for 30 minutes to determine the dose-response curve.

[5] = change of blood pressure vs before administration, read-out: Change (%) hypotensive activity
[6] = change of coronary bloodflow vs before administration, read-out: Change (%) coronary blood-flow increasing activity

Compound | change in vivo at 0.003 mg/kg [1, 5] [%] | change in vivo at 0.003 mg/kg [1, 6] [%] | response vs control in vivo at 1 mg/kg [2] [%] | IC50 [3] [nM] | IC50 [4] [nM]
CNC(=S)C1(c2ccc3nccn3c2)CCCCC1NCc1ccccc1 (stereo not drawn) [Compound 7] | -7.3 | 22.8 | 87.9 ± 0.1 | 1.78 | –
CNC(=S)C1(c2ccc3nccn3c2)CCCCC1OCc1ccccc1 (stereo not drawn) [Compound 5, 2-benzyloxy-1-(imidazo[1,2-a]pyridin-6-yl)-N-methylcyclohexanecarbothioamide] | -8.1 | 196 | – | 0.355 | 8.91
CNC(=S)C1(c2ccc3nc(C(F)(F)F)cn3c2)CCCCC1=O (single isomer, unassigned; (-)) [Compound 12, (-)-1-(2-trifluoromethylimidazo-[1,2-a]pyridin-6-yl)-N-methyl-2-oxocyclohexanecarbothioamide] | -16.5 | 86.5 | – | 20 | –
CNC(=S)C1(c2ccc3nccn3c2)CCCCC1=NOCc1ccccc1 (stereo not drawn) [Compound 6, anti-2-benzyloxyimino-1-(imidazo[1,2-a]pyridin-6-yl)-N-methylcyclohexanecarbothioamide] | -25.2 | 67.5 | 59.3 ± 6.9 | 1.91 | 204
CNC(=S)C1(n2cnc([N+](=O)[O-])c2)CCCCC1=NOCc1ccccc1 (stereo not drawn) [Compound 11, anti-2-benzyloxyimino-N-methyl-1-(4-nitroimidazol-1-yl)cyclohexanecarbothioamide] | -28.5 | 152 | 72.1 ± 4.5 | 0.55 | 148
CNC(=S)C1(c2ccc3nccn3c2)CCCC[S+]1[O-] (stereo not drawn) [Compound 8, 2-(imidazo[1,2-a]pyridin-6-yl)-N-methyltetrahydrothiopyran-2-carbothioamide1-oxide] | -10.5 | 70.7 | 62 ± 6.5 | 55 | –
CNC(=S)C1(c2ccc3nccn3c2)CCCCC1OC(=O)c1ccccc1 (single isomer, unassigned; (-)) [Compound 4, (-)-2-benzoyloxy-1-(imidazo[1,2-a]pyridin-6-yl)-N-methylcyclohexanecarbothioamide] | -26.6 | 312 | – | 0.575 | –
CNC(=S)C1(c2ccc3nc(C)cn3c2)CCCCC1=O (single isomer, unassigned; (-)) [Compound 3, (-)-N-methyl-1-(2-methylimidazo-[1,2-a]pyridin-6-yl)-2-oxocyclohexanecarbothioamide] | -27 | 198 | 45.9 ± 3.9 | 6.17 | 759
CNC(=S)C1(c2ccc3nc(C)cn3c2)CCCC[S+]1[O-] (single isomer, unassigned; (-)) [Compound 13, (-)-2-(2-methylimidazo-[1,2-a]pyridin-6-yl)-N-methyltetrahydrothiopyran-2-carbonthioamide 1-oxide] | -30 | 228 | – | 20 | –
CNC(=S)C1(n2cnc([N+](=O)[O-])c2)CCCCC1OCc1ccccc1 (stereo not drawn) [Compound 10, 2-benzyloxy-N-methyl-1-(4-nitroimidazol-1yl)cyclohexanecarbothioamide] | -16.3 | 169 | 58.8 ± 5.7 | 0.49 | 51.3
CNC(=S)C1(n2cnc([N+](=O)[O-])c2)CCCCC1OC(=O)c1ccccc1 (stereo not drawn) [Compound 9, 2-benzoyloxy-N-methyl-1-(4-nitroimidazol-1yl)cyclohexanecarbothioamide] | -14.9 | 131 | 62.4 ± 3.7 | 11 | 479
CNC(=S)C1(c2ccc3nccn3c2)CCCCC1=O (single isomer, unassigned; (-)) [Compound 1, (-)-1-(imidazo[1,2-a]pyridin-6-yl)-N-methyl-2-oxocyclohexanecarbothioamide] | -22.1 | 78.6 | 51.6 ± 5.1 | 18.6 | 2630
